Data as given in the NIST ThermoML archive (doi:10.1021/je900164a).

Experiment: xn = mol fraction of the nth substance listed
Details: 101 kPa, Liquid, Vibrating tube method

CNC(=O)NC [1,3-dimethylurea] + O
Details	mass density [kg/m3]
274.15 K, x1 = 0.000898	1000.36
274.15 K, x1 = 0.0018	1000.83
274.15 K, x1 = 0.00448	1002.26
274.15 K, x1 = 0.00893	1004.68
274.15 K, x1 = 0.01771	1009.58
274.15 K, x1 = 0.02461	1013.5
274.15 K, x1 = 0.03141	1017.27
274.15 K, x1 = 0.03815	1021.02
274.15 K, x1 = 0.04471	1024.43
274.15 K, x1 = 0.05126	1027.8
274.15 K, x1 = 0.06722	1035.64
274.15 K, x1 = 0.08246	1042.41
275.15 K, x1 = 0.000898	1000.39
275.15 K, x1 = 0.0018	1000.85
275.15 K, x1 = 0.00448	1002.25
275.15 K, x1 = 0.00893	1004.65
275.15 K, x1 = 0.01771	1009.48
275.15 K, x1 = 0.02461	1013.35
275.15 K, x1 = 0.03141	1017.12
275.15 K, x1 = 0.03815	1020.73
275.15 K, x1 = 0.04471	1024.13
275.15 K, x1 = 0.05126	1027.45
275.15 K, x1 = 0.06722	1035.23
275.15 K, x1 = 0.08246	1042.02
276.15 K, x1 = 0.000898	1000.4
276.15 K, x1 = 0.0018	1000.86
276.15 K, x1 = 0.00448	1002.26
276.15 K, x1 = 0.00893	1004.64
276.15 K, x1 = 0.01771	1009.4
276.15 K, x1 = 0.02461	1013.24
276.15 K, x1 = 0.03141	1016.94
276.15 K, x1 = 0.03815	1020.54
276.15 K, x1 = 0.04471	1023.92
276.15 K, x1 = 0.05126	1027.2
276.15 K, x1 = 0.06722	1034.87
276.15 K, x1 = 0.08246	1041.67
277.15 K, x1 = 0.000898	1000.41
277.15 K, x1 = 0.0018	1000.87
277.15 K, x1 = 0.00448	1002.27
277.15 K, x1 = 0.00893	1004.63
277.15 K, x1 = 0.01771	1009.35
277.15 K, x1 = 0.02461	1013.14
277.15 K, x1 = 0.03141	1016.8
277.15 K, x1 = 0.03815	1020.37
277.15 K, x1 = 0.04471	1023.74
277.15 K, x1 = 0.05126	1027.03
277.15 K, x1 = 0.06722	1034.56
277.15 K, x1 = 0.08246	1041.26
278.15 K, x1 = 0.000898	1000.41
278.15 K, x1 = 0.0018	1000.86
278.15 K, x1 = 0.00448	1002.23
278.15 K, x1 = 0.00893	1004.56
278.15 K, x1 = 0.01771	1009.26
278.15 K, x1 = 0.02461	1013.05
278.15 K, x1 = 0.03141	1016.7
278.15 K, x1 = 0.03815	1020.22
278.15 K, x1 = 0.04471	1023.58
278.15 K, x1 = 0.05126	1026.87
278.15 K, x1 = 0.06722	1034.3
278.15 K, x1 = 0.08246	1040.88
278.15 K, x1 = 0.09755	1046.81
279.18 K, x1 = 0.000898	1000.38
279.18 K, x1 = 0.0018	1000.83
279.18 K, x1 = 0.00448	1002.19
279.18 K, x1 = 0.00893	1004.5
279.18 K, x1 = 0.01771	1009.16
279.18 K, x1 = 0.02461	1012.89
279.18 K, x1 = 0.03141	1016.44
279.18 K, x1 = 0.03815	1019.9
279.18 K, x1 = 0.04471	1023.29
279.18 K, x1 = 0.05126	1026.57
279.18 K, x1 = 0.06722	1033.9
279.18 K, x1 = 0.08246	1040.45
279.18 K, x1 = 0.09755	1046.32
280.15 K, x1 = 0.000898	1000.35
280.15 K, x1 = 0.0018	1000.78
280.15 K, x1 = 0.00448	1002.14
280.15 K, x1 = 0.00893	1004.44
280.15 K, x1 = 0.01771	1009.05
280.15 K, x1 = 0.02461	1012.74
280.15 K, x1 = 0.03141	1016.24
280.15 K, x1 = 0.03815	1019.66
280.15 K, x1 = 0.04471	1023.02
280.15 K, x1 = 0.05126	1026.26
280.15 K, x1 = 0.06722	1033.52
280.15 K, x1 = 0.08246	1040.01
280.15 K, x1 = 0.09755	1045.78
281.15 K, x1 = 0.000898	1000.29
281.15 K, x1 = 0.0018	1000.73
281.15 K, x1 = 0.00448	1002.06
281.15 K, x1 = 0.00893	1004.34
281.15 K, x1 = 0.01771	1008.91
281.15 K, x1 = 0.02461	1012.56
281.15 K, x1 = 0.03141	1016
281.15 K, x1 = 0.03815	1019.47
281.15 K, x1 = 0.04471	1022.79
281.15 K, x1 = 0.05126	1025.97
281.15 K, x1 = 0.06722	1033.21
281.15 K, x1 = 0.08246	1039.61
281.15 K, x1 = 0.09755	1045.39
282.15 K, x1 = 0.000898	1000.22
282.15 K, x1 = 0.0018	1000.65
282.15 K, x1 = 0.00448	1001.98
282.15 K, x1 = 0.00893	1004.22
282.15 K, x1 = 0.01771	1008.75
282.15 K, x1 = 0.02461	1012.36
282.15 K, x1 = 0.03141	1015.77
282.15 K, x1 = 0.03815	1019.19
282.15 K, x1 = 0.04471	1022.47
282.15 K, x1 = 0.05126	1025.61
282.15 K, x1 = 0.06722	1032.76
282.15 K, x1 = 0.08246	1039.05
282.15 K, x1 = 0.09755	1044.75
283.15 K, x1 = 0.000898	1000.13
283.15 K, x1 = 0.0018	1000.57
283.15 K, x1 = 0.00448	1001.88
283.15 K, x1 = 0.00893	1004.12
283.15 K, x1 = 0.01771	1008.6
283.15 K, x1 = 0.02461	1012.17
283.15 K, x1 = 0.03141	1015.58
283.15 K, x1 = 0.03815	1019.01
283.15 K, x1 = 0.04471	1022.23
283.15 K, x1 = 0.05126	1025.27
283.15 K, x1 = 0.06722	1032.44
283.15 K, x1 = 0.08246	1038.58
283.15 K, x1 = 0.09755	1044.35
288.15 K, x1 = 0.000898	999.526
288.15 K, x1 = 0.0018	999.93
288.15 K, x1 = 0.00448	1001.23
288.15 K, x1 = 0.00893	1003.35
288.15 K, x1 = 0.01771	1007.67
288.15 K, x1 = 0.02461	1011.04
288.15 K, x1 = 0.03141	1014.35
288.15 K, x1 = 0.03815	1017.55
288.15 K, x1 = 0.04471	1020.59
288.15 K, x1 = 0.05126	1023.54
288.15 K, x1 = 0.06722	1030.34
288.15 K, x1 = 0.08246	1036.44
288.15 K, x1 = 0.09755	1041.6
298.15 K, x1 = 0.000898	997.452
298.15 K, x1 = 0.0018	997.853
298.15 K, x1 = 0.00448	999.058
298.15 K, x1 = 0.00893	1001.08
298.15 K, x1 = 0.01771	1005.1
298.15 K, x1 = 0.02461	1008.24
298.15 K, x1 = 0.03141	1011.28
298.15 K, x1 = 0.03815	1014.24
298.15 K, x1 = 0.04471	1017.04
298.15 K, x1 = 0.05126	1019.75
298.15 K, x1 = 0.06722	1025.98
298.15 K, x1 = 0.08246	1031.41
298.15 K, x1 = 0.09755	1036.31
308.15 K, x1 = 0.000898	994.42
308.15 K, x1 = 0.0018	994.802
308.15 K, x1 = 0.00448	995.947
308.15 K, x1 = 0.00893	997.861
308.15 K, x1 = 0.01771	1001.7
308.15 K, x1 = 0.02461	1004.63
308.15 K, x1 = 0.03141	1007.43
308.15 K, x1 = 0.03815	1010.16
308.15 K, x1 = 0.04471	1012.76
308.15 K, x1 = 0.05126	1015.27
308.15 K, x1 = 0.06722	1021.16
308.15 K, x1 = 0.08246	1026.06
308.15 K, x1 = 0.09755	1030.33
